Laboratory results: ChEMBL document CHEMBL3132829, “Optimization of triazole-based TGR5 agonists towards orally available agents” (Medchemcomm, 2013)

Experiments:
Assay type in all cases: ADME, organism-based, Canis lupus familiaris
[1] = Oral bioavailability in beagle dog at 3 mg/kg by LC-MS/MS analysis; conditions: in vivo
[2] = Tmax in beagle dog at 1 mg/kg, iv and 3 mg/kg, po by LC-MS/MS analysis; conditions: in vivo
[3] = Cmax in beagle dog at 1 mg/kg, iv and 3 mg/kg, po by LC-MS/MS analysis; conditions: in vivo
[4] = Half life in beagle dog at 1 mg/kg, iv and 3 mg/kg, po by LC-MS/MS analysis; conditions: in vivo
[5] = Volume of distribution at steady state in beagle dog at 1 mg/kg, iv and 3 mg/kg, po by LC-MS/MS analysis; conditions: in vivo, read-out: Vdss

For `COc1cccc(-n2nnc(C3CC3)c2C(=O)N(C)c2ccc(C#N)cc2)c1`, the bioavailability [1] was 17%, the Tmax [2] was 0.25 h and the Cmax [3] was 510 nM. It also gave a half-life [4] of 4.7 h and a Vd [5] of 4.6 L/kg.
